# Laboratory results published in ChEMBL document CHEMBL5360671, “Targeting KRASG12D Mutations: Discovery of Small Molecule Inhibitors for the Potential Treatment of Intractable Cancers” (ACS Med Chem Lett, 2023).
# Experiments:
# [1] = biological target: Mitogen-activated protein kinase; ERK1/ERK2 (Homo sapiens, UniProt P27361+P28482); experiment: Inhibition of ERK1/2 phosphorylation in human PANC-1 cells incubated for 3 hrs; format: cell-based
# [2] = Drug absorption in Balb/c mouse assessed as fraction of drug absorbed into portal vein at 1 mg/kg, […] measured for 24 hrs by UPLC-MS/MS analysis; format: ADME, organism-based; settings: in vivo
# [3] = Oral bioavailability in Balb/c mouse at 30 mg/kg measured for 24 hrs by UPLC-MS/MS analysis; format: ADME, organism-based; settings: in vivo
Structure (SMILES),IC50 [1] [nM],FaFg [2] [%],bioavailability [3] [%]
CCc1c(F)ccc2cc(O)cc(-c3nc4c5c(nc(OC[C@@]67CCCN6C[C@H](F)C7)nc5c3F)N3C[C@H]5CC[C@H](N5)[C@H]3CO4)c12,0.76,–,–
Oc1cc(-c2nc3c4c(nc(OC[C@@]56CCCN5C[C@H](F)C6)nc4c2F)N2C[C@H]4CC[C@H](N4)[C@H]2CO3)c2c(Cl)cccc2c1,5,–,–
Oc1cc(-c2nc3c4c(nc(OC[C@@]56CCCN5C[C@H](F)C6)nc4c2F)N2CC4CCC(N4)C2CO3)c2c(Cl)cccc2c1 (some centres undefined),33,–,–
Oc1cc(Cl)c(C2CC2)c(-c2nc3c4c(nc(OC[C@@]56CCCN5C[C@H](F)C6)nc4c2F)N2CC4CCC(N4)C2CO3)c1 (some centres undefined),7,–,–
C#Cc1c(F)ccc2cc(O)cc(-c3ncc4c(N5C[C@H]6CC[C@@H](C5)N6)nc(OC[C@@]56CCCN5C[C@H](F)C6)nc4c3F)c12 [MRTX-1133],2.3,0.95,0.66
C#Cc1c(F)ccc2cccc(-c3nc4c5c(nc(OC[C@@]67CCCN6C[C@H](F)C7)nc5c3F)N3CC5CCC(N5)C3CO4)c12 (some centres undefined),9,–,–
C#Cc1c(F)ccc2cccc(-c3nc4c5c(nc(OC[C@@]67CCCN6C[C@H](F)C7)nc5c3F)N3C[C@H]5CC[C@H](N5)[C@H]3CO4)c12,2,54,37.7
C#Cc1cccc2cccc(-c3nc4c5c(nc(OC[C@@]67CCCN6C[C@H](F)C7)nc5c3F)N3C[C@H]5CC[C@H](N5)[C@H]3CO4)c12,10,56.6,39.2
